Series [1] deals with T1, hPXR (Homo sapiens (Human), UniProt O75469). Briefly: cell-based hPXR antagonistic assay. Conditions: for inhibition at 10 µM: read-out: Antagonist (% inhibition at 10 μM); for Antagonist (% inhibition at 10 μM): SPA70 at 10 μM with rifampicin (5 μM) as 100% inhibition, rifampicin alone (5 μM) as 0%.
Series [2] concerns the target T1, hPXR. Nature of the series: hPXR binding assay. The settings on record: for inhibition at 10 µM: read-out: Binding (% inhibition at 10 μM).
Series [3] has as its target T1, hPXR. Nature of the series: cell-based hPXR agonistic assay. Conditions: for Agonist (% activation at 10 μM): rifampicin at 10 μM as 100% activation, DMSO (0.3%) as 0%.
In series [4] the target is T1, hPXR. Briefly: cell-based hPXR inverse agonistic assay. Conditions: for inhibition at 10 µM: read-out: Inverse agonist (% inhibition at 10 μM).
Where [5] appears, read: read-out: Binding (IC50/μM), hPXR binding assay.
The mark [6] stands for this setting: read-out: Antagonist (IC50/μM), cell-based hPXR antagonistic assay with rifampicin (5 μM).
Setting [7] is: read-out: Inverse agonist (IC50/μM), cell-based hPXR inverse agonistic assay.

Where only a bound is given, the exact number is not on record here.

T1 sequence (O75469 whole entry): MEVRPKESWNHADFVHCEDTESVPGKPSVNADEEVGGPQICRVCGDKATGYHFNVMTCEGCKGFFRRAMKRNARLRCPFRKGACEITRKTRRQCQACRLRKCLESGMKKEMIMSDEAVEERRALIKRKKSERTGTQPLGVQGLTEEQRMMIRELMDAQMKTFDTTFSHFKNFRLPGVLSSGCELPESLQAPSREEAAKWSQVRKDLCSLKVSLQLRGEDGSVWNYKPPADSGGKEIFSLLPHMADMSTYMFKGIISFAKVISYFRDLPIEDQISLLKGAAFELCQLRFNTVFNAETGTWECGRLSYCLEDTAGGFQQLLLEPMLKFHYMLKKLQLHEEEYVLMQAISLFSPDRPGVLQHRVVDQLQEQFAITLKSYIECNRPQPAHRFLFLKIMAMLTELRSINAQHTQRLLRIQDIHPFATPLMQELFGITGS

In the case of `COc1ccc(OC)c(-n2nnc(C(=O)Nc3ccc(NC(C)=O)c(C(C)(C)C)c3)c2C)c1` [C1, N-(4-acetamido-3-(tert-butyl)phenyl)-1-(2,5-dimethoxyphenyl)-5-methyl-1H-1,2,3-triazole-4-carboxamide], the IC50 in series [1] was greater than 30 µM; in series [2] (setting [5]), 1.81 ± 0.52 µM; in series [4], greater than 30 µM. The inhibition at 10 µM in series [2] was determined as 65%. Moreover, in series [3], it took 1960 ± 190 nM to reach a half-maximal effect (EC50). Besides, the “Agonist (% activation at 10 μM)” value in series [3] is listed as “(50 ± 14)%”.

Regarding `CCCCOc1cc(NC(=O)c2nnn(-c3cc(C)ccc3OC)c2C)cc(C(C)(C)C)c1` [G9], the IC50 in series [1] is 0.4 µM; in series [2] (setting [5]), 0.21 µM; in series [4], 0.15 ± 0.04 µM. Further, the inhibition at 10 µM in series [1] was determined as 105%; in series [2], 62%; in series [4], 96%. In series [3], this compound registered an EC50 greater than 30000 nM.

On to `CCCCNc1cc(NC(=O)c2nnn(-c3cc(OC)ccc3OC)c2C)cc(C(C)(C)C)c1` [D4, N-(3-(tert-butyl)-5-(butylamino)phenyl)-1-(2,5-dimethoxyphenyl)-5-methyl-1H-1,2,3-triazole-4-carboxamide], for which the IC50 in series [1] (setting [6]) worked out at 0.13 µM; in series [2] (setting [5]), 0.45 ± 0.12 µM; in series [4] (setting [7]), 0.039 ± 0.012 µM. Moreover, in series [3], the EC50 is greater than 30000 nM.

Regarding `COc1ccc(OC)c(-n2nnc(C(=O)Nc3cc(N=C=S)cc(C(C)(C)C)c3)c2C)c1` [D11], the IC50 in series [1] came to 30.2 ± 16.1 µM; in series [2] (setting [5]) it was 2.6 ± 0.51 µM; in series [4], 2.55 ± 0.64 µM. In addition, the inhibition at 10 µM in series [1] came to 26%; in series [2], 47%; in series [4] it was 95%. Moreover, the EC50 in series [3] was greater than 30000 nM.

On to `COc1ccc(-n2nnc(C(=O)Nc3ccc(NC(C)=O)c(C(C)(C)C)c3)c2C)cc1` [E2, N-(4-acetamido-3-(tert-butyl)phenyl)-1-(4-methoxyphenyl)-5-methyl-1H-1,2,3-triazole-4-carboxamide], for which the IC50 in series [1] is greater than 30 µM; in series [2] (setting [5]), 6.94 ± 0.2 µM; in series [4], greater than 30 µM. The inhibition at 10 µM in series [2] was 54%. Also, the midpoint of the response in series [3], the EC50, lay at 5160 ± 1100 nM. For the same compound, the “Agonist (% activation at 10 μM)” value in series [3] is recorded as “(24 ± 2)%”.

As to `COc1ccc(OC)c(-n2nnc(C(=O)Nc3cc(C(C)(C)C)ccc3OC(=O)c3nnn(-c4cc(OC)ccc4OC)c3C)c2C)c1` [B3, 4-(tert-butyl)-2-(1-(2,5-dimethoxyphenyl)-5-methyl-1H-1,2,3-triazole-4-carboxamido)phenyl 1-(2,5-dimethoxyphenyl)-5-methyl-1H-1,2,3-triazole-4-carboxylate], the IC50 in series [1], in series [2] and in series [4] was greater than 30 µM throughout. The half-maximal effective concentration (EC50) in series [3] was found to be 590 nM. In series [3], the “Agonist (% activation at 10 μM)” value is recorded as “(55 ± 6)%”.

Regarding `COc1ccc(-n2nnc(C(=O)Nc3cc(C)ccc3OC)c2C)cc1` [E10], the IC50 in series [1] is greater than 30 µM; in series [2] (setting [5]), 1.2 ± 0.3 µM; in series [4], greater than 30 µM. In series [2], the inhibition at 10 µM was found to be 53%. For the same compound, in series [3], the EC50 is greater than 30000 nM.

In the case of `COc1ccc(OC)c(-n2nnc(C(=O)Nc3cc(C(C)(C)C)ccc3OCCCCCCCCI)c2C)c1` [B19], the IC50 in series [1] stood at 2.48 µM; in series [2] (setting [5]), 0.5 ± 0.12 µM; in series [4], 0.43 ± 0.14 µM. The inhibition at 10 µM was 86% in series [1], 68% in series [2] and 95% in series [4]. In series [3], this compound gave an EC50 greater than 30000 nM.

For `COc1ccc(OC)c(-n2nnc(C(=O)Nc3cc(OCCOCCOCCOCCNC(=O)CCCC[C@@H]4SC[C@@H]5NC(=O)N[C@@H]54)cc(C(C)(C)C)c3)c2C)c1` [L1], the IC50 is 5.44 ± 1 µM in series [1], greater than 30 µM in series [2] and greater than 30 µM in series [4]. Further, the inhibition at 10 µM in series [1] was found to be 40%. This compound also gave an EC50 in series [3] greater than 30000 nM.

Regarding `CCCCOc1cc(NC(=O)c2nnn(-c3cc(Cl)ccc3OC)c2C)cc(C(C)(C)C)c1` [F6], the values for the IC50 in series [1], in series [2] (setting [5]) and in series [4] were 0.67 ± 0.16 µM, 0.042 ± 0.011 µM and 0.22 µM, respectively. Further, the inhibition at 10 µM is 94% in series [1], 61% in series [2] and 65% in series [4]. For the same compound, in series [3], the EC50 was greater than 30000 nM.

As to `COc1ccc(OC)c(-n2nnc(C(=O)Nc3cc(NCC(=O)OC(C)(C)C)cc(C(C)(C)C)c3)c2C)c1` [D8, tert-butyl (3-(tert-butyl)-5-(1-(2,5-dimethoxyphenyl)-5-methyl-1H-1,2,3-triazole-4-carboxamido)phenyl)glycinate], the figures for the IC50 in series [1], in series [2] (setting [5]) and in series [4] were 0.46 ± 0.06 µM, 0.33 µM and 0.12 µM, respectively. The inhibition at 10 µM in series [1] was found to be 104%; in series [2], 81%; in series [4], 127%. Further, the EC50 in series [3] was greater than 30000 nM.

As for `CCCCN(CCCC)c1cc(NC(=O)c2nnn(-c3cc(OC)ccc3OC)c2C)cc(C(C)(C)C)c1` [D5, N-(3-(tert-butyl)-5-(dibutylamino)phenyl)-1-(2,5-dimethoxyphenyl)-5-methyl-1H-1,2,3-triazole-4-carboxamide], the “Antagonist (% inhibition at 10 μM)” value in series [1] is “(82 ± 17)%”. Also, the results for the IC50 in series [1] (setting [6]), in series [2] (setting [5]) and in series [4] (setting [7]) were 0.62 ± 0.28 µM, 0.5 ± 0.12 µM and 0.15 µM, respectively. In addition, in series [3], the EC50 is greater than 30000 nM.

`COCCOCCOCCOCCOc1cc(NC(=O)c2nnn(-c3cc(OC)ccc3OC)c2C)cc(C(C)(C)C)c1` [D27]: the IC50 in series [1] was determined as 2.14 ± 0.36 µM; in series [2] (setting [5]) it was 1 ± 0.08 µM; in series [4], 1.14 ± 0.58 µM. In addition, the inhibition at 10 µM amounted to 92% in series [1], 70% in series [2] and 91% in series [4]. Besides, the EC50 in series [3] was greater than 30000 nM.

In the case of `COc1ccc(OC)c(-n2nnc(C(=O)NS(=O)(=O)c3ccc(C(C)(C)C)cc3)c2C)c1` [K5, N-((4-(tert-butyl)phenyl)sulfonyl)-1-(2,5-dimethoxyphenyl)-5-methyl-1H-1,2,3-triazole-4-carboxamide], the IC50 in series [1] was greater than 30 µM; in series [2] (setting [5]), 10.7 ± 0.23 µM; in series [4], greater than 30 µM. The inhibition at 10 µM in series [2] worked out at 43%. Also, in series [3], the EC50 was 7460 ± 1110 nM. The “Agonist (% activation at 10 μM)” value in series [3] is given as “(32 ± 2)%”.

Regarding `CCCCOc1ccc(C(C)(C)C)cc1NC(=O)c1nnn(-c2ccc(OC)cc2)c1C` [E9], the IC50 in series [1], in series [2] and in series [4] was greater than 30 µM throughout. The EC50 in series [3] was greater than 30000 nM.

As to `COc1ccc(Cl)cc1-n1nnc(C(=O)Nc2cc(C(C)(C)C)cc(C(C)(C)C)c2)c1C` [F1], the IC50 in series [1] stood at 0.24 µM; in series [2] (setting [5]), 0.044 ± 0.016 µM; in series [4], 0.066 ± 0.014 µM. For the same compound, the inhibition at 10 µM stood at 102% in series [1], 67% in series [2] and 93% in series [4]. Further, the EC50 in series [3] was greater than 30000 nM.

With `COc1ccc(OC)c(-n2nnc(C(=O)Nc3cc(NC(=O)CCC(=O)O)cc(C(C)(C)C)c3)c2C)c1` [D6, 4-((3-(tert-butyl)-5-(1-(2,5-dimethoxyphenyl)-5-methyl-1H-1,2,3-triazole-4-carboxamido)phenyl)amino)-4-oxobutanoic acid], the values for the IC50 in series [1], in series [2] (setting [5]) and in series [4] were 22.1 ± 4.86 µM, 1.26 µM and 12.7 ± 4.69 µM, respectively. The values for the inhibition at 10 µM in series [1], in series [2] and in series [4] were 25%, 70% and 48%, respectively. For the same compound, the half-maximal effective concentration (EC50) in series [3] was greater than 30000 nM.

With `CCCCOc1ccc(C(C)(C)C)cc1NC(=O)c1nnn(-c2ccncc2)c1C` [H13], the IC50 in series [1], in series [2] and in series [4] was greater than 30 µM each time. Further, the EC50 in series [3] was greater than 30000 nM.

As to `COc1ccc(OC)c(-n2nnc(C(=O)Nc3cc(N(C)C)cc(C(C)(C)C)c3)c2C)c1` [D3, N-(3-(tert-butyl)-5-(dimethylamino)phenyl)-1-(2,5-dimethoxyphenyl)-5-methyl-1H-1,2,3-triazole-4-carboxamide], the “Antagonist (% inhibition at 10 μM)” value in series [1] was “(110 ± 3)%”. For the same compound, the IC50 was found to be 0.34 µM in series [1] (setting [6]), 0.27 ± 0.04 µM in series [2] (setting [5]) and 0.11 µM in series [4] (setting [7]). In series [3], this compound showed an EC50 greater than 30000 nM.

On to `COc1ccc(OC)c(-n2nnc(C(=O)Nc3cccc(N(C)C)c3)c2C)c1` [A10], for which the IC50 was greater than 30 µM in series [1], 10.5 ± 2.1 µM in series [2] (setting [5]) and greater than 30 µM in series [4]. Moreover, in series [2], the inhibition at 10 µM was determined as 49%. For the same compound, the EC50 in series [3] was greater than 30000 nM.

For the compound `COc1ccc(OC)c(-n2nnc(C(=O)Nc3cccc(N4CCCCC4)c3)c2C)c1` [A12], the IC50 is greater than 30 µM in series [1], 9.37 ± 3.52 µM in series [2] (setting [5]) and 25.8 ± 6.27 µM in series [4] (setting [7]). The inhibition at 10 µM in series [2] was 50%; in series [4], 36%. The EC50 in series [3] was greater than 30000 nM.

`COc1ccc(OC)c(-n2nnc(C(=O)Nc3cc(OCC(=O)O)cc(C(C)(C)C)c3)c2C)c1` [D32]: the IC50 in series [1], in series [2] and in series [4] was greater than 30 µM in each case. In addition, the EC50 in series [3] is greater than 30000 nM.

For `COc1ccc(OC)c(-n2nnc(C(=O)Nc3cc(OCCCCI)cc(C(C)(C)C)c3)c2C)c1` [D17, N-(3-(tert-butyl)-5-(4-iodobutoxy)phenyl)-1-(2,5-dimethoxyphenyl)-5-methyl-1H-1,2,3-triazole-4-carboxamide], the IC50 in series [1] is 0.066 ± 0.007 µM; in series [2] (setting [5]), 0.18 µM; in series [4], 0.0088 ± 0.003 µM. Also, the inhibition at 10 µM amounted to 112% in series [1], 50% in series [2] and 120% in series [4]. In series [3], the EC50 was greater than 30000 nM.

Usually inhibition stands for the change of the read-out against control, counted positive when it falls. As a reminder, the EC50 is the concentration at which the effect is half-maximal.

These data come from US20250282736A1, “SMALL MOLECULE MODULATORS OF HUMAN PREGNANE X RECEPTOR” (ST. JUDE CHILDREN'S RESEARCH HOSPITAL, priority 2022, published 2025).
